Experimental data as given in patent publication US8927550B2, “Heterocyclic compounds as CCR1 receptor antagonists” (Boehringer Ingelheim International GmbH, priority 2009, dated 2015).
pIC50: −log10 of the molar value.

Molecular target: T1, CCR1 (Homo sapiens, UniProt P32246)
T1 construct: host or cells: Non-adherent cells
T1 sequence (P32246 1-355): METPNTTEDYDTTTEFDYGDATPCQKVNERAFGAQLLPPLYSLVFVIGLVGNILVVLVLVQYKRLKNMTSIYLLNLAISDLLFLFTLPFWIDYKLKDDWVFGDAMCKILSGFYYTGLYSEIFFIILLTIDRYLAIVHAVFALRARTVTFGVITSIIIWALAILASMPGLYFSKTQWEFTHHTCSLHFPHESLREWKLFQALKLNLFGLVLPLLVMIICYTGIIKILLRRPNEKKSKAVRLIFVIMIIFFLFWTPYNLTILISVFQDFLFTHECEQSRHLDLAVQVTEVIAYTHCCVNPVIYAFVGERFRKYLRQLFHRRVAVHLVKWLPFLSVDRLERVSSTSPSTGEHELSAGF
Assay: Calcium flux in CCR1 transfected cells, Method B (Calcium 4 dye, HAMAMATSU FDSS6000), MIP-1alpha at EC80
Format: cell-based
Settings: cells stably expressing recombinant CCR1 and G-alpha-16, 30 minutes at 37 C then 30 minutes at room temperature
Experimental: Compounds are assessed for the ability to block the interaction of CCR1 and MIP-1α in a functional cellular assay measuring calcium flux in CCR1 transfected cells.
Method B: Non-adherent cells purchased from Chemicon Corporation (HTS005C), stably expressing recombinant CCR1 and G-alpha-16 are grown in RPMI 1640 medium (Mediatech 10-080-CM) supplemented with 10% FBS, 0.4 mg/mL Geneticin and penicillin/streptomycin. On the day of the assay, the cells are loaded with Calcium 4 dye (Molecular Devices R7448) with Probenecid (Invitrogen P346400) at 8E5 cells/mL for 1 hour at room temperature. After 1 hour, they are seeded in a 384-well tissue culture-treated plate at a density of 20,000 cells/well. Appropriately diluted test compound is added to the well to achieve a top concentration of 3,000 nM (diluted 4-fold with 10 doses total). The final concentration of DMSO is 1%. The buffer is HBSS (Invitrogen 14025) with 20 mM HEPES at pH 7.4. The cells incubate 30 minutes at 37 C and then 30 minutes at room temperature. The plates are transferred to the HAMAMATSU FDSS6000 where MIP-1alpha in 1% BSA is added at the EC80 final concentration. All plates must be read within 4 hours of the start of dye-loading. Wells+/−MIP-1alpha containing diluted DMSO instead of compound serve as the controls. Data are analyzed using Activity Base software.

pIC50 | SMILES
6.22 | CS(=O)(=O)c1cc(CNC(=O)c2nccn3c(-c4ccc(F)cc4)ncc23)ccn1 [3-(4-Fluorophenyl)-imidazo[1,5-a]pyrazine-8-carboxylic acid (2-methanesulfonyl-pyridin-4-ylmethyl)-amide]
6.59 | CC[C@H](NC(=O)c1cc(S(C)(=O)=O)cc2c1ccn2-c1ccc(F)cc1)c1ccc(S(C)(=O)=O)nc1 [1-(4-Fluorophenyl)-6-methanesulfonyl-1H-indole-4-carboxylic acid [(S)-1-(6-methanesulfonyl-pyridin-3-yl)-propyl]-amide]
7.68 | CC[C@H](NC(=O)c1cncc2c1ccn2-c1ccc(F)cc1)c1ccc(S(C)(=O)=O)nc1 [1-(4-Fluorophenyl)-1H-pyrrolo[2,3-c]pyridine-4-carboxylic acid [(S)-1-(6-methanesulfonyl-pyridin-3-yl)-propyl]-amide]
7.64 | CC[C@H](NC(=O)c1cncc2c1ccn2-c1ccc(F)cc1)c1cnc(S(C)(=O)=O)s1 [1-(4-Fluorophenyl)-1H-pyrrolo[2,3-c]pyridine-4-carboxylic acid [(S)-1-(2-methanesulfonyl-thiazol-5-yl)-propyl]-amide]
7.02 | CC[C@H](NC(=O)c1cccc2c(-c3ccc(F)cc3)ncn12)c1ccc(Br)nc1 [1-(4-Fluorophenyl)-imidazo[1,5-a]pyridine-5-carboxylic acid [(S)-1-(6-bromopyridin-3-yl)-propyl]-amide]
8.40 | CS(=O)(=O)Nc1ccc(CNC(=O)c2cc(C#N)cc3c2ccn3-c2ccc(F)cc2)cn1 [6-Cyano-1-(4-fluorophenyl)-1H-indole-4-carboxylic acid (6-methanesulfonylamino-pyridin-3-ylmethyl)-amide]
7.35 | C[C@H](NC(=O)c1cncc2c1ccn2-c1ccc(F)cc1)c1ccnc(S(C)(=O)=O)c1 [1-(4-Fluorophenyl)-1H-pyrrolo[2,3-c]pyridine-4-carboxylic acid [(S)-1-(2-methanesulfonyl-pyridin-4-yl)-ethyl]-amide]
7.77 | CC[C@H](NC(=O)c1cccn2c(-c3ccc(F)cc3)ncc12)c1ccc(S(C)(=O)=O)nc1 [3-(4-Fluorophenyl)-imidazo[1,5-a]pyridine-8-carboxylic acid [(S)-1-(6-methanesulfonyl-pyridin-3-yl)-propyl]-amide]
8.70 | CC[C@H](NC(=O)c1cncc2c1ccn2-c1ccc(F)cc1)c1ccnc(S(C)(=O)=O)c1 [1-(4-Fluorophenyl)-1H-pyrrolo[2,3-c]pyridine-4-carboxylic acid [(S)-1-(2-methanesulfonyl-pyridin-4-yl)-propyl]-amide]
5.96 | CCC[C@H](NC(=O)c1cccn2c(-c3ccc(F)cc3)cnc12)c1ccc(Br)nc1 [3-(4-Fluorophenyl)-imidazo[1,2-a]pyridine-8-carboxylic acid [(S)-1-(6-bromopyridin-3-yl)-butyl]-amide]
8.40 | CS(=O)(=O)c1ccc(CNC(=O)c2cc(C#N)cc3c2ccn3-c2ccc(F)cc2)cn1 [6-Cyano-1-(4-fluorophenyl)-1H-indole-4-carboxylic acid (6-methanesulfonyl-pyridin-3-ylmethyl)-amide]
7.74 | CN1CCC(NS(=O)(=O)c2ccc(CNC(=O)c3cc(C#N)cc4c3ccn4-c3ccc(F)cc3)cc2)CC1 [6-Cyano-1-(4-fluorophenyl)-1H-indole-4-carboxylic acid 4-(1-methyl-piperidin-4-ylsulfamoyl)-benzylamide]
8.70 | CC[C@H](NC(=O)c1cccn2c(-c3ccc(F)cc3)ncc12)c1ccnc(S(C)(=O)=O)c1 [3-(4-Fluorophenyl)-imidazo[1,5-a]pyridine-8-carboxylic acid [(S)-1-(2-methanesulfonyl-pyridin-4-yl)-propyl]-amide]
8.52 | CC[C@H](NC(=O)c1nncc2c1cnn2-c1ccc(F)cc1)c1ccnc(S(C)(=O)=O)c1 [1-(4-Fluorophenyl)-1H-pyrazolo[3,4-d]pyridazine-4-carboxylic acid [(S)-1-(2-methanesulfonyl-pyridin-4-yl)-propyl]-amide]
